Laboratory results: patent EP4417602A1, “SUBSTITUTED PYRAZOLE CARBOXAMIDES, SALTS THEREOF AND THEIR USE AS HERBICIDALLY ACTIVE SUBSTANCES” (Bayer AG, priority 2023, dated 2024)

How the values were obtained:
MATIN = assay: A. Herbicidal pre-emergence action on harmful plants (Tables A); type: in vivo, Matricaria inodora; conditions: visual grading after ca. 3 weeks vs untreated controls, 100% = plants have died off, 0% = as control plants
From the text: (§1) Seeds of mono- and dicotyledonous weed plants were sown in plastic pots (double sowings with one species of mono- and one species of dicotyledonous weed plants per pot), in sandy loam, and covered with soil. The compounds according to the invention, formulated in the form of wettable powders (WP) or as emulsifiable concentrates (EC), were applied to the surface of the covering soil as aqueous suspension or emulsion, with the addition of 0.5% of an additive, at an application rate of 6001 of water per hectare (converted). Following treatment, the pots were placed in a greenhouse and kept under optimum growth conditions for the test plants. The visual grading of the damage to the test plants was carried out after ca. 3 weeks in comparison to untreated controls (herbicidal effect in percent (%): 100% effect = plants have died off, 0% effect = as control plants). Tables A1 to A12, below, show the effects of selected compounds of the general formula (I) according to table 1 on various harmful plants and an application rate corresponding to 1280 g/ha or below obtained by the experimental procedure mentioned above. Table A1: pre-emergence activity at 1280g/ha against ABUTH in %

SETVI = assay: as above; type: in vivo, Setaria viridis; conditions: visual grading after ca. 3 weeks vs untreated controls, 100% = plants have died off, 0% = as control plants
From the text: as §1

DIGSA = assay: as above; type: in vivo, Digitaria sanguinalis
From the text: as §1

POAAN [1] = assay: as above; type: in vivo, Poa annua
From the text: as §1

LOLRI = assay: as above; type: in vivo, Lolium rigidum; conditions: visual grading after ca. 3 weeks vs untreated controls, 100% = plants have died off, 0% = as control plants
From the text: as §1

ECHCG = assay: as above; type: in vivo, Echinochloa crus-galli; conditions: visual grading after ca. 3 weeks vs untreated controls, 100% = plants have died off, 0% = as control plants
From the text: as §1

STEME = assay: as above; type: in vivo, Stellaria media; conditions: application rate 1280 g/ha; visual grading after ca. 3 weeks vs untreated controls; 100% = plants have died off, 0% = as control plants
From the text: as §1

POAAN [2] = assay: B. Herbicidal post-emergence action on harmful plants (Tables B); type: in vivo, Poa annua
Protocol: Seeds of mono- and dicotyledonous weed plants were placed in plastic pots in sandy loam soil (doubly sown with in each case one species of mono- or dicotyledonous weed plants per pot), covered with soil and cultivated in a greenhouse under controlled growth conditions. 2 to 3 weeks after sowing, the test plants were treated at the one-leaf stage. The compounds of the invention, formulated in the form of wettable powders (WP) or as emulsion concentrates (EC), were applied onto the green parts of the plants as aqueous suspension or emulsion with addition of 0.5% additive at a water application rate of 600 liters per hectare (converted). After the test plants had been kept in the greenhouse under optimum growth conditions for about 3 weeks, the activity of the preparations was rated visually in comparison to untreated controls. For example, 100% activity = the plants have died, 0% activity = like control plants. Tables B1 to B12, below, show the effects of selected compounds of the general formula (I) according to table 1 on various harmful plants and an application rate corresponding to 1280 g/ha or below obtained by the experimental procedure mentioned above. Table B1a: post-emergence activity at 1280g/ha against ABUTH in %

[3] = application rate 320 g/ha, Table A12b
[4] = application rate 1280 g/ha, Table A12a
[5] = application rate 320 g/ha, Table A7b
[6] = application rate 1280 g/ha, visual grading after ca. 3 weeks vs untreated controls, 100% = plants have died off, 0% = as control plants
[7] = application rate 80 g/ha, Table A7c
[8] = application rate 1280 g/ha, Table B7a

Structure (SMILES) | pre-emergence activity against MATIN (MATIN; application rate 1280 g/ha) [%] | pre-emergence activity against SETVI (SETVI; application rate 1280 g/ha) [%] | pre-emergence activity against DIGSA (DIGSA; [3]) [%] | pre-emergence activity against DIGSA (DIGSA; [4]) [%] | pre-emergence activity against POAAN (POAAN [1]; [5]) [%] | pre-emergence activity against POAAN (POAAN [1]; [6]) [%] | pre-emergence activity against LOLRI (LOLRI; application rate 1280 g/ha) [%] | pre-emergence activity against ECHCG (ECHCG; application rate 1280 g/ha) [%] | pre-emergence activity against POAAN (POAAN [1]; [7]) [%] | pre-emergence activity against SETVI (SETVI; application rate 320 g/ha) [%] | pre-emergence activity against ECHCG (ECHCG; application rate 320 g/ha) [%] | pre-emergence activity against STEME (STEME) [%] | post-emergence activity against POAAN (POAAN [2]; application rate 320 g/ha, Table B7b) [%] | post-emergence activity against POAAN (POAAN [2]; [8]) [%] | pre-emergence activity against MATIN (MATIN; application rate 320 g/ha) [%] | pre-emergence activity against DIGSA (DIGSA; application rate 80 g/ha, Table A12c) [%] | pre-emergence activity against LOLRI (LOLRI; application rate 320 g/ha) [%] | pre-emergence activity against ECHCG (ECHCG; application rate 80 g/ha) [%]
COCc1nn(C(C)C)cc1C(=O)N1CCCC1Cc1ccccc1F (racemic) [Example I-025] | 90 | 90 | 90 | 100 | 100 | 100 | 90 | 90 | – | – | – | – | – | – | – | – | – | –
COCc1nn(CC2CC2)cc1C(=O)N1CCCC1Cc1ccccc1F (racemic) [Example I-026] | – | 90 | – | 100 | – | 100 | – | 90 | – | – | – | – | – | – | – | – | – | –
COCc1nn(CC2OCCO2)cc1C(=O)N1CCCC1Cc1ccccc1F (racemic) [Example I-028] | – | 90 | – | 90 | – | 100 | – | 90 | – | – | – | – | – | – | – | – | – | –
COCc1nn(CC#N)cc1C(=O)N1CCCC1Cc1ccccc1F (racemic) [Example I-029] | 90 | 100 | – | 100 | – | 90 | – | 90 | – | – | – | – | – | – | – | – | – | –
COCCOCCn1cc(C(=O)N2CCCC2Cc2ccccc2F)c(COC)n1 (racemic) [Example I-030] | 90 | 90 | – | 90 | 90 | 100 | – | 90 | 90 | – | – | – | – | – | – | – | – | –
COCCn1cc(C(=O)N2CCCC2Cc2ccccc2F)c(COC)n1 (racemic) [Example I-032] | – | 90 | – | 100 | 100 | 100 | 100 | 90 | – | 90 | 90 | – | – | – | – | – | – | –
COCc1nn(CC(OC)OC)cc1C(=O)N1CCCC1Cc1ccccc1F (racemic) [Example I-047] | – | – | – | 90 | – | 100 | 90 | 100 | – | – | – | – | – | – | – | – | – | –
COC(=O)c1nn(C)cc1C(=O)N1CCCC1Cc1ccc(F)cc1F (racemic) [Example I-096] | – | – | – | 100 | 100 | 100 | – | 100 | – | – | 100 | 100 | 100 | 100 | – | – | – | –
Cn1cc(C(=O)N2CCC2Cc2ccccc2F)c(COCC(F)F)n1 (racemic) [Example I-108] | 100 | 100 | – | 100 | 100 | 100 | 90 | 100 | 90 | – | 100 | 90 | – | 90 | – | – | – | –
Cn1cc(C(=O)N2CCC2Cc2ccccc2Cl)c(COCC(F)F)n1 (racemic) [Example I-109] | 100 | 90 | 90 | 100 | 100 | 100 | – | 100 | – | – | 100 | – | – | – | – | – | – | –
COCc1c(C(=O)N2CCCC2Cc2c(F)cccc2Cl)cnn1C (racemic) [Example I-151] | – | 90 | – | 100 | – | 100 | 90 | 100 | – | – | – | 90 | – | – | – | – | – | –
COCc1c(C(=O)N2CCCC2Cc2ccc(F)cc2F)cnn1C (single isomer, unassigned) [Example I-119] | – | 100 | 90 | 100 | – | 100 | 100 | 90 | – | 90 | – | – | – | 90 | – | – | – | –
COCc1c(C(=O)N2CCCC2Cc2cccc(F)c2F)cnn1C (single isomer, unassigned) [Example I-137] | 90 | 100 | 100 | 100 | 100 | 100 | 100 | 100 | 100 | – | 90 | – | – | 90 | 90 | 100 | 90 | 90
COCc1c(C(=O)N2CCCC2Cc2c(F)cccc2Cl)cnn1C (single isomer, unassigned) [Example I-190] | – | 100 | 100 | 100 | 100 | 100 | 90 | 100 | 90 | – | 90 | 90 | – | 90 | – | – | – | –
Cn1cc(C(=O)N2CCCC2Cc2ccccc2F)c(C2CCCO2)n1 (stereo not shown) [Example I-011] | – | – | – | 100 | – | 100 | 90 | 100 | – | – | – | 90 | – | – | – | – | – | –
